Here are results for four molecules from patent publication US20250250252A1, “PIPERIDINYLBENZONITRILE DERIVATIVES AS INHIBITORS OF GLUTAMINYL-PEPTIDE CYCLOTRANSFERASE AND GLUTAMINYL-PEPTIDE CYCLOTRANSFERASE LIKE PROTEIN” (Boehringer Ingelheim International GmbH, priority 2024, published 2025).

One series deals with QPCTL (Homo sapiens (Human), UniProt Q9NXS2). Kind of series: Assay A: biochemical QPCTL activity assay (MALDI-TOF MS). As to conditions: read-out: Inhibition of QPCTL: IC50. As to the method:
(§1) QPCT or QPCTL dependent conversion of N-terminal glutamine to pyroglutamate of CD47 was monitored via MALDI-TOF MS. Test compounds were dissolved in 100% DMSO and serially diluted into clear 1,536-well microtiter plates. Enzymatic reactions were set up in assay buffer containing 20 mM Tris pH 7.5, 0.1 mM TCEP, 0.01% BSA, and 0.001% Tween20. […] The plates were incubated for 10 min in a humidified incubator at 24° C. Subsequently, 2.5 μL of CD47 peptide substrate surrogate (^19[…]^33) was added to each well (final concentration: 10 μM for QPCTL/20 μM for QPCT). The plates were mixed for 30 sec at 1,000 rpm and subsequently incubated for 40 min in a humidified incubator at 24° C. […] The plates were sealed with an adhesive foil, mixed for 30 s at 1,000 rpm and stored at room temperature until preparation of the MALDI target plates. […] QPCT or QPCTL activity was monitored by calculating the ratio between product and internal standard signals followed by normalization to high (100% activity) and low (0% activity) controls. Determination of compound potencies was obtained by fitting the dose-response data to a four-parameter logistical equation.

For the next series, the target named is QPCT (Homo sapiens (Human), UniProt Q16769). Kind of series: Assay A: biochemical QPCT activity assay (MALDI-TOF MS). As to conditions: read-out: Inhibition of QPCT: IC50. The protocol: as §1
Sequence of QPCT (Q16769 29-361): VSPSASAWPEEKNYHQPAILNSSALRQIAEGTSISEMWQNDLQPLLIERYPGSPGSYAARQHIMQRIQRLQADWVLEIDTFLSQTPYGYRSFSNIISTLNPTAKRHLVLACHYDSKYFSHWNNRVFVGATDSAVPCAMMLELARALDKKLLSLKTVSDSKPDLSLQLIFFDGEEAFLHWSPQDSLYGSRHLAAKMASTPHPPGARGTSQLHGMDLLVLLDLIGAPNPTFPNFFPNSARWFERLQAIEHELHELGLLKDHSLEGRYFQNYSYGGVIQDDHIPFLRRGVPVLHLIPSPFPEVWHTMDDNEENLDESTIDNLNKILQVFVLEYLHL
Series [1] is described as follows: Assay C: Permeability in CACO-2 cells. It is filed as in vitro ADME. As to conditions: human, Assay C; for efflux ratio: Caco-2, pH 7.2, permeability B-A/permeability A-B, read-out: Efflux Ratio; for Papp A→B: pH 7.2, CACO-2 cells. The protocol: (§2) Caco-2 cells (1-2×10^5 cells/1 cm^2 area) are seeded on filter inserts (Costar transwell polycarbonate or PET filters, 0.4 μm pore size) and cultured (DMEM) for 10 to 25 days. Compounds are dissolved in appropriate solvent (like DMSO, 1-20 mM stock solutions). […] The transport solution (TL) is applied to the apical or basolateral donor side for measuring A-B or B-A permeability (3 filter replicates), respectively. Samples are collected at the start and end of experiment from the donor and at various time intervals for up to 2 hours also from the receiver side for concentration measurement by HPLC-MS/MS or scintillation counting. Sampled receiver volumes are replaced with fresh receiver solution.
(§3) Efflux ratio (ER)=permeability B-A/permeability A-B
In general terms: Passage across Caco-2 layers is used to estimate intestinal permeability.

The test system of a further series is CYP3A4 mRNA. The series can be described thus: Assay D: CYP induction screening assay in primary human hepatocytes. It is filed as in vitro ADME. As to conditions: 48 h. As to the method:
Cryopreserved plateable human hepatocytes (single donor, BioIVT) were thawed and plated in Collagen-I coated 96-well-plates at a cell density of 0.07 million cells per well.
After a 6 h attachment period, the seeding medium was replaced by serum-free William's medium E supplemented with Matrigel (0.25 mg/ml) and allowed to recover overnight. 24 h post-seeding, serum-free Williams E medium containing the test compound at a final concentration of 10 μM and a final DMSO content of 0.1% and 0.1% DMSO (solvents treated control), respectively, was added to predefined wells. Exposure solutions were renewed after 24 h.
After 48 h of treatment in total, the effect of the test compounds on CYP3A4 mRNA expression was assessed using the QuantiGene Plex Gene Expression Assay. Hepatocytes were lysed and total RNA was extracted using the QuantiGene Sample Processing Kit according to the instructions of the manufacturer.
mRNA quantification was conducted using a customized QuantiGene Plex Panel to analyse CYP3A4 and the housekeeper genes RPL32, EIF4E2 and GUSB according to the instructions of the manufacturer and measured on a Luminex™ instrument. Signal was reported as median fluorescence intensity (MFI), which is proportional to the number of target RNA molecules present in the sample.
For calculation of CYP3A4 mRNA induction, the signal for CYP3A4 was normalized against the geometric mean of the signal obtained for the housekeeper genes for hepatocytes exposed to test compounds in relation to solvent-treated samples according to the following equation:
n-fold induction=(MFI CYP3A4 (treated)/Xgeo MFI (RPL32,EIF4E2,GUSB))/(MFI CYP3A4 (solvent control)/Xgeo MFI (RPL32,EIF4E2,GUSB))

The subject of a further series is murine hepatocytes. Kind of series: Assay E: Stability in murine hepatocytes. The format is in vitro ADME, mouse. As to conditions: 1 μM. The protocol: The metabolic degradation of the test compound is assayed in a murine hepatocyte suspension.
Murine hepatocytes (typically cryopreserved) are incubated in an appropriate buffer system (e.g. Dulbecco's modified eagle medium plus 3.5 μg glucagon/500 mL, 2.5 mg insulin/500 mL and 3.75 mg/500 mL hydrocortison) containing 5% species serum.
Following a (typically) 30 min preincubation in an incubator (37° C., 10% CO2) 5 μl of test compound solution (80 μM; from 2 mM in DMSO stock solution diluted 1:25 with medium) are added into 395 μl hepatocyte suspension (cell density in the range 0.25-5 Mio cells/mL, typically 1 Mio cells/mL; final concentration of test compound 1 μM, final DMSO concentration 0.05%).
The cells are incubated for six hours (incubator, orbital shaker) and samples (2 μl) are taken at 0, 0.5, 1, 2, 4 and 6 hours. Samples are transferred into acetonitrile and pelleted by centrifugation (5 min). The supernatant is transferred to a new 96-deepwell plate, evaporated under nitrogen and resuspended.
CLint is calculated as follows CL_[…]=Dose/AUC=(C0/CD)/(AUD+clast/k)×1000/60. C0: initial concentration in the incubation [μM], CD: cell density of vital cells [10e6cells/mL], AUD: area under the data [μM×h], clast: concentration of last data point [μM], k: slope of the regression line for parent decline [h−1].
The calculated in vitro hepatic intrinsic clearance can be scaled up to the intrinsic in vivo hepatic Clearance and used to predict hepatic in vivo blood clearance (CL) by the use of a liver model (well stirred model).
CL_[…]_INVIVO[ml/min/kg]=(CL_[…][μL/min/10e6cells]×hepatocellularity[10e6cells/g liver]×liver factor[g/kg bodyweight])/1000
CL[ml/min/kg]=CL_[…]_INVIVO[ml/min/kg]×hepatic blood flow[ml/min/kg]/(CL_[…]_INVIVO[ml/min/kg]+hepatic blood flow[ml/min/kg])
Hepatocellularity,mouse:120×10e6cells/g liver
Liver factor,mouse:55 g/kg bodyweight
Blood flow,mouse:90 ml/(min×kg)

The next series deals with isolated QPCTL (Homo sapiens (Human), UniProt Q9NXS2). The conditions noted are these: disclosed in WO 2023/205173 [00470]; read-out: inhibitory activity on isolated QPCTL IC50; cited from earlier work.
Sequence of isolated QPCTL (Q9NXS2 whole entry, species assumed): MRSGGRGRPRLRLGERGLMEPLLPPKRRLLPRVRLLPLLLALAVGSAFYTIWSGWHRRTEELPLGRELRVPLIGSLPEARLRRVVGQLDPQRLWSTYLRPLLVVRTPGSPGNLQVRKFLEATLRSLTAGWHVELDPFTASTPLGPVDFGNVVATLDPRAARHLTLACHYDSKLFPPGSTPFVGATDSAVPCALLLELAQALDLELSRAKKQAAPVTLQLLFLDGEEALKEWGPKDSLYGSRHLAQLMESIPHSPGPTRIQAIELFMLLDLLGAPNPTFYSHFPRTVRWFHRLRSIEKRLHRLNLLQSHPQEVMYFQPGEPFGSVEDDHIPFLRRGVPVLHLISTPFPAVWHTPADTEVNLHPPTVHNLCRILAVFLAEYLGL
The next series deals with A549 cells. As to conditions: disclosed in WO 2023/205173 [00470]; read-out: cellular activity in A549 cells EC50; cited from earlier work.
Series [2] relates to SIRPα signalling induced by A549 cells. Kind of series: Assay B: SIRPα signalling assay using A549 cells. It is filed as cell-based. As to conditions: Homo sapiens, read-out: Inhibition of SIRPα signalling induced by A549 cells: IC50. As to the method: Two cell types are independently used: the Raji cell line (lymphoblast-like human cell line derived from B lymphocytes from a Burkitt's lymphoma patient in 1963) and A549 cells (adenocarcinomic human alveolar basal epithelial cells).
Test compounds were dissolved in 100% DMSO and serially diluted into a white 384-well microtiter cell culture plate (PerkinElmer #60076780 in case of Raji assay; PDL-coated plates Greiner #781945 in case of A549 assay). 5000 Raji cells (ATCC #CC86) or 5000 A549 cells (ATCC #CCL-185) in Assay Complete Cell Plating reagent 30 (DiscoverX 93-0563R30B) were added per well. The assay plate was incubated for 48 h at 37° C., 95% humidity and 5% CO2. 15000 reporter cells (Jurkat PathHunter SIRPαV1, DiscoverX #93-1135C19) were added to each well, and the plate was incubated for 5 h at 37° C., 95% humidity and 5% CO2. Bioassay reagent 1 of the PathHunter Bioassay detection kit (DiscoverX 93-0001) was added to each well of the plate using a multichannel pipette followed by a 15 min incubation at room temperature. Afterwards bioassay reagent 2 was added followed by 60 min incubation at room temperature (incubation in the dark).
The analysis of the data was performed using the luminescence signal generated by betagalactosidase in the PathHunter reporter cell line. The luminescence measurement was done using a Pherastar Multi-Mode Reader. Dose-response curves & IC50 data were calculated with 4-parameter sigmoidal dose response formula.

The subject of another series is CACO-2 cells. The series can be described thus: Assay C: Permeability in CACO-2 cells. The format is in vitro ADME. As to conditions: pair comparison without/with 4-fluoropiperidyl. The protocol: as §2, §3
In another series the test system is Ramos cells. The conditions noted are these: disclosed in WO 2024/020517 [00698]; read-out: cellular activity in Ramos cells IC50; cited from earlier work.
Series [3] has as its system SIRPα signalling induced by Raji cells. Kind of series: Assay B: SIRPα signalling assay using Raji cells. As to conditions: Homo sapiens, read-out: Inhibition of SIRPα signalling induced by Raji cells: IC50. The format is cell-based. The protocol: Bioassay reagent 1 of the PathHunter Bioassay detection kit (DiscoverX 93-0001) was added to each well of the plate using a multichannel pipette followed by a 15 min incubation at room temperature. Afterwards bioassay reagent 2 was added followed by 60 min incubation at room temperature (incubation in the dark).
The analysis of the data was performed using the luminescence signal generated by betagalactosidase in the PathHunter reporter cell line. The luminescence measurement was done using a Pherastar Multi-Mode Reader.

Sequence of QPCTL (Q9NXS2 whole entry): as the sequence (Q9NXS2 whole entry, species assumed) above

In the case of `Cn1c(N)nnc1C1CCN(c2c(C#N)cccc2-c2ccc(F)nc2)CC1` [Compound 14, reference compound], the values for the IC50 on QPCTL, on QPCT and on isolated QPCTL were 1 nM, under 1 nM and under 1000 nM, respectively. Besides, in series [1], the efflux ratio came out at 22.2. In addition, the Papp A→B in series [1] stood at 0.7 ×10⁻⁶ cm/s. Moreover, the “n-fold induction of CYP3A4 at 10 μM” value in the series on CYP3A4 mRNA was determined as 1.9 n-fold. In the series with murine hepatocytes, the “Mouse Hepatocyte Stability QH” value turned out to be 31%. For the same molecule, the concentration giving a half-maximal response (EC50) in the series with A549 cells was under 1000 nM.

Consider `Cn1cnnc1C1CCN(c2c(C#N)cccc2-c2ccc(F)nc2)CC1` [(1)/QP5020, reference compound], for which the IC50 in series [2] is 8 nM; in the series with Ramos cells, under 100 nM. Also, the “CACO2 Perm.” value in the series on CACO-2 cells is listed as 28.0 10^−6 cm/sec. Moreover, in the series with murine hepatocytes, the “Mouse Hepatocyte Stability QH” value was found to be 82%.

As to `Cn1cnnc1C1(F)CCN(c2c(C#N)cc(-c3cnc(C(F)(F)F)nc3)cc2-c2ccc(F)nc2)CC1` [Example 9], the IC50 stood at 3 nM on QPCTL, 6 nM on QPCT, 108 nM in [3] and 67 nM in series [2]. Moreover, the efflux ratio in [1] was 5.2. For the same molecule, in series [1], the Papp A→B amounted to 4.8 ×10⁻⁶ cm/s. Besides, the “n-fold induction of CYP3A4 at 10 μM” value in the series on CYP3A4 mRNA stood at 1.4 n-fold. Further, in the series with murine hepatocytes, the “Mouse Hepatocyte Stability QH” value was 20%.

Turning to `Cc1nn(C)c(C)c1-c1cc(C#N)c(N2CCC(F)(c3nncn3C)CC2)c(-c2ccc(F)nc2)c1` [Example 3], the IC50 is 4 nM at QPCTL, 5 nM at QPCT, 330 nM in series [3] and 45 nM in series [2]. Also, in [1], the efflux ratio is 7.8. Also, the Papp A→B in [1] was 11 ×10⁻⁶ cm/s. Further, the “n-fold induction of CYP3A4 at 10 μM” value with CYP3A4 mRNA is 1.7 n-fold. For the same molecule, the “Mouse Hepatocyte Stability QH” value with murine hepatocytes is on record as 25%.

For orientation: IC50 means the concentration at which inhibition is half-maximal. The term Papp A→B denotes how fast a substance crosses the layer from the apical side. A high value points to ready permeation. A word on the EC50: it is the concentration giving half of the maximal effect.
